Test results taken from article PMC3466212, “Novel AChE Inhibitors for Sustainable Insecticide Resistance Management” (PLoS ONE, 2012).

Columns and labels:
G119S AChE1 = target: T1, G119S AChE1 (Culex pipiens, UniProt Q86GC8, G247S); test: biochemical; type: biochemical; details: for IC50: recombinant OP-insensitive G119S C. pipiens AChE1, 15 min incubation, acetylthiocholine, read-out: IC50 G119S
T1 construct: made in house; host or cells: Drosophila S2 cells
Method: Production of C. pipiens WT and mutated AChE1s in Drosophila S2 cells was already described. The chemical library (ChemBridge, 3,000 compounds) screening was performed in duplicate on G119S recombinant AChE1. Chemicals were made soluble in ethanol or dimethylsulphoxide (DMSO), and then diluted at 300 µM in ethanol for storage. […] PTF analogs were analyzed in dose-response experiments (10-fold serial dilutions from 3 mM to 30 nM), using recombinant WT and G119S AChE1 or mosquito head extracts (heads cut from frozen mosquitoes, homogenized in 400 µl PB containing 1% Triton X-100 and cleared by centrifugation at 9,000×g for 3 min). Depending on compound availability, two to five replicates were performed with distinct batches of enzyme. […] IC50 was estimated by nonlinear least square regression. IC50 was also measured on AChE1 from susceptible and resistant mosquito larvae extracts.

[1] = tested on: C. pipiens Slab strain larvae; test: Larval bioassay, Slab strain (OP-susceptible); details: fourth-instar larvae, 24 hours exposure, 300 µM
Text: Three C. pipiens strains were used: the susceptible reference Slab strain, homozygous for ace-1 ^S [39], the resistant reference SR strain, carrying the genetical background of Slab but homozygous for the G119S mutation, allele ace-1 ^R [21] and the Ducos strain, carrying the genetical background of Slab but homozygous for an ace-1 duplication, with one ace-1^S and ace-1^R copy in tandem. Culex pipiens heterozygous larvae (Slab×SR) were obtained by crossing Slab males and SR females. Two A. gambiae reference strains (S molecular form) were used: the susceptible strain Kisumu, homozygous for ace-1 ^S, collected in Kenya in 1953 and maintained since then under laboratory conditions and the resistant Acerkis strain, carrying the genetical background of Kisumu but homozygous for an ace-1^R allele from a population collected in Bobo-Dioulasso, Burkina Faso [41].
Insecticidal activity was determined by performing bioassays on fourth-instar larvae as described in [42]. Each compound was dissolved in ethanol. Propoxur (CX) and chlorpyrifos (OP) were used as references. For each compound, we first tested mortality after a 24-hour exposure at 300 µM. […] Mortality data were analyzed by the log-probit program. This program takes into account natural mortality and provides lethal doses (LD) and slopes for each mortality line; it also computes resistance ratios (RR) for each LD, with 95% confidence intervals.

[2] = tested on: C. pipiens SR strain larvae; test: Larval bioassay, SR strain (OP-resistant); details: fourth-instar larvae, 24 hours exposure, 300 µM
Text: Three C. pipiens strains were used: the susceptible reference Slab strain, homozygous for ace-1 ^S [39], the resistant reference SR strain, carrying the genetical background of Slab but homozygous for the G119S mutation, allele ace-1 ^R [21] and the Ducos strain, carrying the genetical background of Slab but homozygous for an ace-1 duplication, with one ace-1^S and ace-1^R copy in tandem. Culex pipiens heterozygous larvae (Slab×SR) were obtained by crossing Slab males and SR females.
Insecticidal activity was determined by performing bioassays on fourth-instar larvae as described in [42]. Each compound was dissolved in ethanol. Propoxur (CX) and chlorpyrifos (OP) were used as references. For each compound, we first tested mortality after a 24-hour exposure at 300 µM. […] Mortality data were analyzed by the log-probit program.

WT AChE1 = WT AChE1 (Culex pipiens, UniProt Q86GC8); test: AChE assay (Ellman), dose-response on recombinant WT AChE1; type: biochemical; set-up: made in house; host or cells: Drosophila S2 cells; details: recombinant wild-type C. pipiens AChE1; 15 min incubation; acetylthiocholine; read-out: IC50 WT
Method: Production of C. pipiens WT and mutated AChE1s in Drosophila S2 cells was already described. The chemical library (ChemBridge, 3,000 compounds) screening was performed in duplicate on G119S recombinant AChE1. Chemicals were made soluble in ethanol or dimethylsulphoxide (DMSO), and then diluted at 300 µM in ethanol for storage. Compounds (30 µM final concentration) were incubated for 15 min at room temperature with 100 µl of G119S recombinant AChE1 then 100 µl of substrate (acetylthiocholine, 1.6 mM, Sigma-Aldrich) was added and the residual activity was quantified by measuring the optical density at 412 nm, as described by Ellman et al.. PTF analogs were analyzed in dose-response experiments (10-fold serial dilutions from 3 mM to 30 nM), using recombinant WT and G119S AChE1 or mosquito head extracts (heads cut from frozen mosquitoes, homogenized in 400 µl PB containing 1% Triton X-100 and cleared by centrifugation at 9,000×g for 3 min). Depending on compound availability, two to five replicates were performed with distinct batches of enzyme. […] IC50 was estimated by nonlinear least square regression. IC50 was also measured on AChE1 from susceptible and resistant mosquito larvae extracts.

Compound | IC50 (G119S AChE1) [µM] | Mortality at 300 µM, Slab [1] [%] | Mortality at 300 µM, SR [2] [%] | IC50 (WT AChE1) [µM] | inhibition in primary screen (hydrolysis of acetylthiocholine) (G119S AChE1; 30 µM final concentration, duplicate, G119S recombinant AChE1)
CN1C(=O)C(=Cc2ccco2)C(=O)N(C)C1=O [PTF-38] | 357 | 70 | 90 | 1190 | 
COc1ccc(N2C(=O)C(=Cc3ccc(C)o3)C(=O)NC2=S)c(OC)c1 [PTF-30] | 1.3 | 25 | 25 | 2.8 | 
CN1C(=O)C(=Cc2ccc([N+](=O)[O-])o2)C(=O)N(C)C1=O [PTF-40] | 55 | 0 | 0 | 83 | 
Cc1ccc(C=C2C(=O)NC(=O)N(c3cccc(Cl)c3Cl)C2=O)o1 [PTF-21] | 4.8 | 0 | 0 | 5 | 
Cc1ccc(C=C2C(=O)NC(=O)N(c3ccccc3F)C2=O)o1 [PTF-18] | 1.8 | 0 | 0 | 5.3 | 
Cc1ccc(C=C2C(=O)NC(=S)N(CC3CCCO3)C2=O)o1 (stereo not shown) [PTF-32] | 2.3 | 0 | 0 | 2.1 | 
Cc1ccc(C=C2C(=O)NC(=O)N(c3ccc(C(C)C)cc3)C2=O)o1 [PTF-9] | 21.5 | 19 | 39 | 132 | 
CCOc1ccc(N2C(=O)NC(=O)C(=Cc3ccc(C)o3)C2=O)cc1 [PTF-13] | 89 | 64 | 96 | 236 | 
Cc1ccc(C=C2C(=O)NC(=O)N(c3ccc(F)cc3)C2=O)o1 [PTF-17] | 8 | 15 | 90 | 5 | 
Cc1ccc(C=C2C(=O)NC(=O)N(c3ccc(C(=O)O)cc3)C2=O)o1 [PTF-15] | 12.9 | 0 | 0 | 9 | 
O=C1NC(=O)N(c2ccccc2)C(=O)C1=Cc1ccc(N2CCCCC2)o1 [PTF-61] | 1500 | 0 | 0 | 124 | 
CC(=O)c1ccc(-c2ccc(C=C3C(=O)N(C)C(=O)N(C)C3=O)o2)cc1 [PTF-45] | 1.1 | 0 | 0 | 3.4 | 
Cc1ccc(N2C(=O)C(=Cc3ccc(C)o3)C(=O)NC2=S)cc1 [PTF-24] | 1.9 | 0 | 0 | 1.3 | 80–87%
O=C1NC(=O)N(c2ccccc2)C(=O)C1=Cc1ccc(N2CCCCC2)s1 [PTF-70] | 6.2 | 0 | 0 | 18 | 
O=C1NC(=O)N(c2ccccc2)C(=O)C1=Cc1ccc(N2CCOCC2)o1 [PTF-62] | 345 | 0 | 0 | 197 | 
O=C1NC(=O)N(c2ccccc2)C(=O)C1=Cc1ccc(Sc2ccccc2)o1 [PTF-60] | 1.1 | 50 | 50 | 7.7 | 
CN1C(=O)C(=Cc2ccc(N3CCOCC3)o2)C(=O)N(C)C1=O [PTF-50] | 145 | 0 | 0 | 260 | 
Cc1ccc(C=C2C(=O)NC(=O)N(c3ccc(C)c(C)c3)C2=O)o1 [PTF-7] | 35 | 100 | 100 | 424 | 
CCCCN1C(=O)C(=Cc2ccc(C)o2)C(=O)NC1=S [PTF-23] | 15.5 | 24 | 60 | 12.1 | 
N=C1NC(=O)C(=Cc2ccco2)C(=O)N1c1ccccc1 [PTF-64] | 49.5 | 0 | 0 | 56 | 
O=C1NC(=O)N(c2ccccc2)C(=O)C1=Cc1ccc(Br)o1 [PTF-55] | 32.6 | 0 | 0 | 17 | 
CN1C(=O)C(=Cc2ccc(N(C)C)o2)C(=O)N(C)C1=O [PTF-41] | 132 | 20 | 20 | 175 | 
Cc1ccc(C=C2C(=O)NC(=O)N(C3CCCCC3)C2=O)o1 [PTF-2] | 5.5 | 12 | 53 | 12.6 | 
COc1ccc(OC)c(N2C(=O)NC(=O)C(=Cc3ccc(C)o3)C2=O)c1 [PTF-14] | 2 | 0 | 0 | 2 | 
